From ChEMBL document CHEMBL1201862, “PubChem BioAssay data set” (2004) come the findings set out here.

In assay [1] the target is Alkaline phosphatase, placental type (Homo sapiens, UniProt P05187). Briefly: PLAP enzyme inhibitors, confirmation, biochemical, luminescence (AID 1512). It is filed as functional.
In assay [2] the test system is HEK293. Nature of the assay: cells. Type of assay: functional, cell-based. The conditions noted are these: Homo sapiens.
For assay [3], the system named is HEK293. Briefly: cells. It is filed as functional, cell-based. The following applies: Homo sapiens. This is another data set of the same source.
Assay [4] has as its system HEK293. Briefly: NOD1 signaling inhibitors, primary screen, cell-based, luminescence, uHTS (AID 1578). It is filed as functional. The conditions noted are these: Homo sapiens.
Assay [5] has as its target Nucleotide-binding oligomerization domain-containing protein 2 (Homo sapiens, UniProt Q9HC29). Nature of the assay: NOD2 signaling inhibitors, cell-based, luminescence, uHTS, HEK293 (AID 1566). Type of assay: functional.
The test system of assay [6] is HEK293. Nature of the assay: NOD2 signaling inhibitors in MDP-stimulated cells, cell-based, uHTS, luminescence (AID 2001). The following applies: Homo sapiens. Type of assay: functional.
The subject of assay [7] is HEK293. Briefly: cells. The conditions noted are these: Homo sapiens. Type of assay: functional, cell-based. This is another data set of the same source.
Assay [8] in a line: cytotoxicity in HEK-293T cells, dose response, cytotoxicity control for TCR NF-kB inhibitor project, luminescence, T-cell screen hits (AID 489026).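 Further: cells exposed to compound about 14 hours before the viability readout.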 It is filed as functional, cell-based.
The next assay has as its target T1, Streptokinase A (Streptococcus pyogenes serotype M1, UniProt P10520).
T1 sequence (P10520 whole entry): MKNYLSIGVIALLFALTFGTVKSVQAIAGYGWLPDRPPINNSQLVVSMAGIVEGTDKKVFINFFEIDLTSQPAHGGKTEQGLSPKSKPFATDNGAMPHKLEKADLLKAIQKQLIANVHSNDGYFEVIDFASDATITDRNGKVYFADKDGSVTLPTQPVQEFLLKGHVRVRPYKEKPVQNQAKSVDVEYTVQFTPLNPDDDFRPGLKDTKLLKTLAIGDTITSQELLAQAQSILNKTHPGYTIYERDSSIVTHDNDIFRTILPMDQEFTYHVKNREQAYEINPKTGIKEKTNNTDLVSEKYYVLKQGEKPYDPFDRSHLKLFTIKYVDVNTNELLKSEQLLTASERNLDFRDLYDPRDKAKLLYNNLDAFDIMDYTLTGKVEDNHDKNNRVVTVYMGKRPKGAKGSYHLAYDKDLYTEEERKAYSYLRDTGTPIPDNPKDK
Briefly: S. pyogenes streptokinase expression inhibitors, potency, dose response, plasminogen activation absorbance, OD405 (AID 1914).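 Further: secreted streptokinase activity via plasminogen activation per viability signal from cell pellet.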 Type of assay: functional, Streptococcus pyogenes M1 GAS.

Assay [9] addresses Voltage-dependent T-type calcium channel subunit alpha-1H (Homo sapiens, UniProt O95180). Type of assay: functional.
A further assay concerns Streptococcus. Briefly: Group A Streptococcus viability loss, dose response, counter-screen for streptokinase expression inhibitor project, luminescence, BacTiterGlo (AID 1915).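 Further: potency for reduction of bacterial viability or growth.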 It is filed as functional, organism-based.
Assay [10] concerns Streptococcus sp. 'group A'. Nature of the assay: growth inhibition of control SK(-) GAS strain, dose response, counter-screen for streptokinase expression inhibitor project, luminescence, kanamycin, BacTiterGlo, confirmation (AID 1900). It is filed as functional, organism-based. (In general: A counterscreen serves to expose hits that act by an unwanted route or on another target.)

The subject of another assay is H9c2. Briefly: cells. Type of assay: functional, cell-based. The following applies: Rattus norvegicus, H9c2, Myocardium.
Assay [11] deals with T2, Alkaline phosphatase, tissue-nonspecific isozyme (Homo sapiens, UniProt P05186).
T2 sequence (P05186 whole entry): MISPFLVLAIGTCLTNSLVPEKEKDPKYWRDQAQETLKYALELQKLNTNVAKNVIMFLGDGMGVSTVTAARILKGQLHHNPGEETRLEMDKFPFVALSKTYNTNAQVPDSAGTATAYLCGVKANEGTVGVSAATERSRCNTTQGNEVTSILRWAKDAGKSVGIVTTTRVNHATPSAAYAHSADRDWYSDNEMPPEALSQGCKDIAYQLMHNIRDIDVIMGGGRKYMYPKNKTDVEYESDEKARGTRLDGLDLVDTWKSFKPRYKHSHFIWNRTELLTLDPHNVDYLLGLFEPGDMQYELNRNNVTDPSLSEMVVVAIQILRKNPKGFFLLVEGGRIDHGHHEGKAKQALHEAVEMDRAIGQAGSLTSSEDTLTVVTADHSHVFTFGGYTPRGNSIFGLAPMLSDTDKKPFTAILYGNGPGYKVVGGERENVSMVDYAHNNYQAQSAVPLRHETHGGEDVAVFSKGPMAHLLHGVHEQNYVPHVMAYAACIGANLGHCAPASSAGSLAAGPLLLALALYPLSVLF
Briefly: human TNAP enzyme inhibitors, SAR follow-up, biochemical, luminescent, dose response (AID 1056).

A further assay is described as follows: cells. It is filed as functional.
Assay [12] in a line: THP-1 cell cytotoxicity, dose response, cytotoxicity control for non-replicating M. tuberculosis project (AID 489025). It is filed as functional.
Assay [13] in a line: Vero E6 cell cytotoxicity, dose response, cytotoxicity control for non-replicating M. tuberculosis project, secondary assay (AID 492998). It is filed as functional, VeroE6. The conditions noted are these: Vero C1008.
The next assay addresses T3, Protein skinhead-1 (Caenorhabditis elegans, UniProt P34707).
T3 sequence (P34707 whole entry): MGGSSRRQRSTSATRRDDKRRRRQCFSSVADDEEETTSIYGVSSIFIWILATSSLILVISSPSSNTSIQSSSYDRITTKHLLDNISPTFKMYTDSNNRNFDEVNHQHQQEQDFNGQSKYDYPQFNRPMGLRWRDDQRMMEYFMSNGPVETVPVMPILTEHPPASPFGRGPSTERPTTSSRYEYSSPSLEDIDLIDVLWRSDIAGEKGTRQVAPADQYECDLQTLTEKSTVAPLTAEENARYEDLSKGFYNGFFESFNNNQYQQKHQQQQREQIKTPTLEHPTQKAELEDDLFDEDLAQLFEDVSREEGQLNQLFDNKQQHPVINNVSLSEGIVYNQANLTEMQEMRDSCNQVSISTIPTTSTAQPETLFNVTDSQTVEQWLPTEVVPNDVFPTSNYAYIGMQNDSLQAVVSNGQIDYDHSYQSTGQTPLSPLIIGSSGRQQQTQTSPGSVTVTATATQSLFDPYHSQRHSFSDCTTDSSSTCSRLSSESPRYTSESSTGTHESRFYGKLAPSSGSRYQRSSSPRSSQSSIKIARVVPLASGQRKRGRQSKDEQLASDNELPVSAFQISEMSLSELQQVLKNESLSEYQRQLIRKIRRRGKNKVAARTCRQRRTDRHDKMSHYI
Type of assay: functional.

Activity calls are given as the source filed them. Bounds are passed on as bounds.

For orientation: IC50 means the concentration that inhibits the measured activity by half. One may read the EC50 as the concentration giving half of the maximal effect. One may read the CC50 as the concentration that lowers cell viability or growth by half.

Sequence of Alkaline phosphatase, placental type (P05187 whole entry): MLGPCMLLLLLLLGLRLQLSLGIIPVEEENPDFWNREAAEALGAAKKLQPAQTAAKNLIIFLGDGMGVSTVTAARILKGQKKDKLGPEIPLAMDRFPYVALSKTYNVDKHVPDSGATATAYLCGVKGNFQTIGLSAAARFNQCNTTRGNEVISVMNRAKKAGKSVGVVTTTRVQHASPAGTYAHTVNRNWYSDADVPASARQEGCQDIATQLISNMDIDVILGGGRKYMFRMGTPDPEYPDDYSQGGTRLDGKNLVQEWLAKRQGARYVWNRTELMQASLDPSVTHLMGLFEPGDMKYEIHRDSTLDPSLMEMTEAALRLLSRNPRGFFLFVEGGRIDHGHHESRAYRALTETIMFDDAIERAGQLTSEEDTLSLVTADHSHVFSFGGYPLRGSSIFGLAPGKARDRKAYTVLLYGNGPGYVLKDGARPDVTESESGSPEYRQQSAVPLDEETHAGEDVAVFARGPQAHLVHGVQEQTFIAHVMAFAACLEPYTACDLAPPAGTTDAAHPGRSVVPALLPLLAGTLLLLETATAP
Sequence of Nucleotide-binding oligomerization domain-containing protein 2 (Q9HC29 whole entry, the tested form may be a part): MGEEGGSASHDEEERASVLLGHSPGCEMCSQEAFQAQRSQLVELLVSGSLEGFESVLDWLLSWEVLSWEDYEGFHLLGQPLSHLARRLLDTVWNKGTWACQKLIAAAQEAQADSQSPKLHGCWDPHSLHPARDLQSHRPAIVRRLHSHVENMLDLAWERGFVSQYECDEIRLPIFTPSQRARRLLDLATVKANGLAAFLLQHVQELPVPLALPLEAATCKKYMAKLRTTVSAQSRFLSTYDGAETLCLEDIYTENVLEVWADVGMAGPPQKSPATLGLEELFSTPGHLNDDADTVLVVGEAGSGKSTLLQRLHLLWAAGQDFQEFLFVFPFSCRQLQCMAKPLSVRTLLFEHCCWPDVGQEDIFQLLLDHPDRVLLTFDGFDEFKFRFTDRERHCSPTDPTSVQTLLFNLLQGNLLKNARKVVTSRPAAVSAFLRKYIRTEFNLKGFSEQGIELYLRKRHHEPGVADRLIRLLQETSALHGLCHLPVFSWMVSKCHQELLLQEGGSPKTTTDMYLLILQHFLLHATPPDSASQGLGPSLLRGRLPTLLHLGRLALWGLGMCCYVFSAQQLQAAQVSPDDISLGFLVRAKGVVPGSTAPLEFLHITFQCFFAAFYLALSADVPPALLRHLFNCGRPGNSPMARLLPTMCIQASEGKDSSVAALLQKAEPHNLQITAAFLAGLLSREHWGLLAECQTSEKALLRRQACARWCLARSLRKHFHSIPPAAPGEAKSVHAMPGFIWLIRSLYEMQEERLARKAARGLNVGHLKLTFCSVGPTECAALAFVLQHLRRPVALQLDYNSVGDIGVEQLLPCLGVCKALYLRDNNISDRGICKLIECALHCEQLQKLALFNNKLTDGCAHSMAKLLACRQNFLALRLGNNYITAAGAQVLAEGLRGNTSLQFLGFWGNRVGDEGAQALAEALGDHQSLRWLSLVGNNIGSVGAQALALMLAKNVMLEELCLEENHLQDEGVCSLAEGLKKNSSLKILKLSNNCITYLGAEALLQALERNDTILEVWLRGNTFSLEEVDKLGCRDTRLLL
Sequence of Voltage-dependent T-type calcium channel subunit alpha-1H (O95180 whole entry): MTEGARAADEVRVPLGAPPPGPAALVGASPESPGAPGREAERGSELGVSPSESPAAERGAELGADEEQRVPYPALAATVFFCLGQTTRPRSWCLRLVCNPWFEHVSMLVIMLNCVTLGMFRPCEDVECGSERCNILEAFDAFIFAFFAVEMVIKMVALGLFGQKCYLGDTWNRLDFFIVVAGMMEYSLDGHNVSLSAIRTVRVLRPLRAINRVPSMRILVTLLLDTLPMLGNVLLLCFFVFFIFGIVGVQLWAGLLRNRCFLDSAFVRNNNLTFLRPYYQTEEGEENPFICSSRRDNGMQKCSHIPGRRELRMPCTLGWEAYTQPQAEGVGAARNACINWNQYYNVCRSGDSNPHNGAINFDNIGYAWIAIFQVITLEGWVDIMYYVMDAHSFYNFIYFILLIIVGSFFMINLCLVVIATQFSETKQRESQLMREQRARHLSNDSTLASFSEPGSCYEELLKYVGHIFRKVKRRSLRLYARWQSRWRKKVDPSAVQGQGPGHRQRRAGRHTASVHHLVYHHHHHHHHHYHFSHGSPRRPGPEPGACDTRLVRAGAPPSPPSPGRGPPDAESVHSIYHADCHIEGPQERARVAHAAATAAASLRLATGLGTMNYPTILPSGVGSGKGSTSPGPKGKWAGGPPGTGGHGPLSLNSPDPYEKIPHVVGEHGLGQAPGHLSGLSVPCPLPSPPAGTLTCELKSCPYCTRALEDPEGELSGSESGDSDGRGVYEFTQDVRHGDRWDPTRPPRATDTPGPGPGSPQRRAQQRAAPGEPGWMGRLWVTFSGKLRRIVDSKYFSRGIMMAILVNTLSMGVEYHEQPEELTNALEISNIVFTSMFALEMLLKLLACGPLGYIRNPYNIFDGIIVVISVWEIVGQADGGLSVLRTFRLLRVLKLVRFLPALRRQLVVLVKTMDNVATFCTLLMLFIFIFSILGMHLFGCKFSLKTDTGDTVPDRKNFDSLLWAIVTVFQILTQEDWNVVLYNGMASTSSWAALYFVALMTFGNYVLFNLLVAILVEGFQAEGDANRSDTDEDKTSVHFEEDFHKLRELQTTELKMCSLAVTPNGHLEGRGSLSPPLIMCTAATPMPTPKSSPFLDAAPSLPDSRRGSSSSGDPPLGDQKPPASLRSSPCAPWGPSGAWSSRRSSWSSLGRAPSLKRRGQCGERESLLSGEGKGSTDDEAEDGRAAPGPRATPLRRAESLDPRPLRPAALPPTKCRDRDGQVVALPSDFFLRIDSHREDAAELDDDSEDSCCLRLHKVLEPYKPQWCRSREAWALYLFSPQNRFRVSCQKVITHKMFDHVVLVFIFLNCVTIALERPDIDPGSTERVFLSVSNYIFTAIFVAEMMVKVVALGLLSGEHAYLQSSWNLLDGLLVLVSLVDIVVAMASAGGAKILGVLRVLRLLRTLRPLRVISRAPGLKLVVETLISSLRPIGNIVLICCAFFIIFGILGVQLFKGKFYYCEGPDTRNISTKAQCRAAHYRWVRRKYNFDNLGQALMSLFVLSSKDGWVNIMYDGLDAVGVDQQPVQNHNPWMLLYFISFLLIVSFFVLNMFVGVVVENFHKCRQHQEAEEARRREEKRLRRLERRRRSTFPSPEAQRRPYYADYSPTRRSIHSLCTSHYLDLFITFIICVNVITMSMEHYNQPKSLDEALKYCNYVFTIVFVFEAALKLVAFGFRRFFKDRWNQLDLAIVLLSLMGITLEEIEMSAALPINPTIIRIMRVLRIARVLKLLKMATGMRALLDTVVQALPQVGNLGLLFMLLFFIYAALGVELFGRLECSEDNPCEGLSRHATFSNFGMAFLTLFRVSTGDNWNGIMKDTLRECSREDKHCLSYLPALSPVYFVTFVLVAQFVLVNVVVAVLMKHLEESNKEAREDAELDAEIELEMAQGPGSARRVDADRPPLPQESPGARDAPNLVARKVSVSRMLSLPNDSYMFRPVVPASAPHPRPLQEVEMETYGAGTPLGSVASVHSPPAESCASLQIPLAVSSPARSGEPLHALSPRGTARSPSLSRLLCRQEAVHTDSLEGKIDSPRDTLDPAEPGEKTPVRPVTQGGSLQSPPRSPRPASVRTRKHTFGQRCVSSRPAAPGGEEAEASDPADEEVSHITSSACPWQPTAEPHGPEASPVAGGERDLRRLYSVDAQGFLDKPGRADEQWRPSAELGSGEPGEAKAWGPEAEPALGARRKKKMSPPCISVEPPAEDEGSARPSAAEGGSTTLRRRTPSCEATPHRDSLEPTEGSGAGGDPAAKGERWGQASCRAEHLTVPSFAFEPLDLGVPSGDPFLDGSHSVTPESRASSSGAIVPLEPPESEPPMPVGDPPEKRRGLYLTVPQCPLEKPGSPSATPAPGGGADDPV

As for `CCc1ccc2nc(Nc3nc(COC)cc(=O)[nH]3)nc(C)c2c1`, the IC50 in assay [1] was > 100 µM (inactive).

On to `COc1ccc(O)c(-c2[nH]ncc2C(=O)c2ccccc2)c1`, for which the IC50 with HEK293 [2] was 9.31 µM (active); in the assay on HEK293 [3], > 20 µM (inactive); in the assay on HEK293 [6], 14 µM (inactive); in the assay on HEK293 [7] it was > 20 µM (inactive). In addition, the EC50 is 15 µM (active) in the assay with HEK293 [4] and 14.3 µM (active) in [5].

For `Cc1csc2ncnc(NC3CCN(Cc4ccccc4)CC3)c12`, the half-inhibitory concentration (IC50) was 1.61 µM (active) in the assay on HEK293 [2]; > 20 µM (inactive) in the assay on HEK293 [3]; > 80 µM (inactive) in assay [8]; 2.36 µM (active) with HEK293 [6]; > 20 µM (inactive) in the assay with HEK293 [7]. The concentration for a half-maximal effect (EC50) in the assay with HEK293 [4] is 1.92 µM (active); in [5], 7.78 µM (active).

With `O=C(CCCSc1ccccc1)Nc1nc(-c2ccccn2)cs1`, the EC50 at Streptokinase A is > 150 µM (not active); in assay [9] it was 4.7 µM (active); in the assay with Streptococcus it was 45.8 µM (active); in [10], 5.14 µM (active). For the same compound, in the assay on H9c2, the IC50 is > 79 µM (inactive).

For the compound `Cc1cc(C(=O)NCCc2ccc(O)c(O)c2)c(C)o1`, the IC50 in [11] and in assay [1] was > 100 µM (inactive) throughout.

In the case of `COc1ccc(CCNc2oc(COc3ccc(Br)cc3)nc2C#N)cc1OC`, the IC50 was 5.86 µM (active) in the assay with HEK293 [2], > 20 µM (inactive) in the assay on HEK293 [3], 5.07 µM (active) in the assay on HEK293 [6] and 8.84 µM (active) in the assay with HEK293 [7]. The EC50 with HEK293 [4] was 10.5 µM (active); in assay [5], 12.8 µM (active).

Consider `CCCCN1C(=O)/C(=N\Nc2ccccc2OC)c2ccccc21`, for which the 50% inhibitory concentration (IC50) in [11] was 28.7 µM (active); in assay [1], 87.9 µM (active).

In the case of `COc1ccc(-n2c(C)c([N+](=O)[O-])c3ccc(O)c(CN4CCCCC4)c32)cc1`, the half-inhibitory concentration (IC50) with HEK293 [2] was 2.1 µM (active); in the assay with HEK293 [3], > 20 µM (inactive); with HEK293 [6], 2.39 µM (active); in the assay with HEK293 [7], > 20 µM (inactive). Moreover, the figures for the EC50 (with HEK293 [4]; in assay [5]) were 2.77 µM (active) and > 20 µM (inactive), respectively.

In the case of `O=C(Nc1nc(-c2cc(F)ccc2F)cs1)c1ccccn1`, the IC50 is 0.83 µM (active) in “cells” and > 100 µM (inactive) at Protein skinhead-1. The CC50 was 29.4 µM (active) in assay [12] and > 20 µM (active) in [13].
